Several values for one entry are separate records, joined by “and”; a condition that tells them apart may be missing. Equal entries are not always repeated.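 Each compound was tested at five concentrations against cells in 96-well plates for 48 hours. Abbreviation: GI50, concentration required for 50% inhibition of growth. TGI marks complete inhibition of growth.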
Legend:
Assay in all cases: NCI-60 cell line screen, 48 h
SK-MEL-2 melanoma = test system: SK-MEL-2 melanoma
T-47D breast = test system: T-47D breast
HT29 colon = test system: HT29 colon
ACHN renal = test system: ACHN renal
OVCAR-5 ovarian = test system: OVCAR-5 ovarian
RXF 393 renal = test system: RXF 393 renal
MALME-3M melanoma = test system: MALME-3M melanoma
TK-10 renal = test system: TK-10 renal
UACC-257 melanoma = test system: UACC-257 melanoma
M14 melanoma = test system: M14 melanoma

Compound | GI50 (SK-MEL-2 melanoma) | TGI (SK-MEL-2 melanoma) | GI50 (T-47D breast) | TGI (T-47D breast) | GI50 (HT29 colon) | TGI (HT29 colon) | GI50 (ACHN renal) | TGI (ACHN renal) | GI50 (OVCAR-5 ovarian) | TGI (OVCAR-5 ovarian) | GI50 (RXF 393 renal) | TGI (RXF 393 renal) | GI50 (MALME-3M melanoma) | TGI (MALME-3M melanoma) | GI50 (TK-10 renal) | TGI (TK-10 renal) | GI50 (UACC-257 melanoma) | TGI (UACC-257 melanoma) | GI50 (M14 melanoma) | TGI (M14 melanoma)
O=C1c2cccnc2-c2nc(-c3ccccn3)cc3c2c1nc1ccccc13 | 1.06 µM | 2.52 µM | 0.601 µM | 11.9 µM | 0.85 µM | 2.95 µM | 0.0333 µM | 0.368 µM | 0.745 µM | 3.43 µM | 0.285 µM | 5.84 µM | 0.377 µM | 1.72 µM | 0.296 µM | 1.11 µM | 0.533 µM | 1.97 µM | 0.228 µM | 1.36 µM
Cc1c2ncccc2c(C)c2c1[nH]c1ccc(O)cc12 |  | 97.5 µM | 42.8 µM |  |  | 32.3 µM | 3.06 µM | 12.4 µM and 18.7 µM | 46.6 µM | 24.4 µM and 120 µM | 10.7 µM | 9.81 µM and 43 µM | 6.44 µM and 32.7 µM | 23.2 µM and 103 µM | 17.4 µM | 25.9 µM and 61.6 µM | 27.3 µM | 25.2 µM and 89 µM | 8.67 µM | 17.2 µM
Cc1ccc2c(/C=C/C(=O)c3cc(CN4CCOCC4)c(O)c4nc(C)ccc34)cc(CN3CCOCC3)c(O)c2n1 | 0.623 µM | 13.1 µM | 0.779 µM | 14 µM | 1.64 µM | 3.39 µM | 0.535 µM | 2.06 µM | 1.55 µM | 13.1 µM | 0.851 µM | 2.27 µM | 2 µM | 10.6 µM | 1.13 µM | 3.77 µM | 2.62 µM | 13.6 µM | 0.564 µM | 11.7 µM
CC(C)(C)[Si](C)(C)OC1[C@@H](O[Si](C)(C)C(C)(C)C)[C@@H](CNC(=O)NC(=O)NC(=O)CI)O[C@H]1n1cnc2c(NC(=O)Nc3ccccc3)ncnc21 (some centres not stated) | 8.07 µM | 17.7 µM | 9.63 µM | 28 µM | 0.225 µM | 0.771 µM | 1.41 µM | 9.75 µM | 2.71 µM | 12.2 µM | 0.713 µM | 3.11 µM | 0.143 µM | 0.565 µM | 0.21 µM | 1.05 µM | 7.42 µM | 16.7 µM | 6.1 µM | 14.6 µM
OCc1ccc(N(Cc2ccc(F)cc2)C2CCC2)cc1Cl | 4.89 µM | 20.1 µM | 0.141 µM | 0.815 µM | 3.89 µM | 15.3 µM | 13.2 µM | 26.4 µM | 0.106 µM | 0.495 µM | 3.57 µM | 16.6 µM | 16.2 µM | 31.3 µM | 0.0551 µM | 0.278 µM | 0.121 µM | 0.46 µM | 15.8 µM | 32 µM
CC1/C=C/C=C/CC/C=C/C=C/C=C/C=C/C(OC2OC(C)C(O)C(N)C2O)CC2OC(CC(O)C(O)CCC(O)CC(O)CC(O)CC(=O)OC(C)C(C)C1O)CC(O)C2C(=O)O (configuration not stated) | 31.8 µg/mL | 92.4 µM and 94.1 µg/mL | 59.8 µg/mL | > 100 µM and 150 µg/mL | 37.2 µg/mL | 32.8 µM and 84.8 µg/mL | 22.8 µg/mL | 32.3 µM and 42.7 µg/mL | 49.5 µg/mL | 35.8 µM and 135 µg/mL | 19.5 µg/mL | 27.3 µM and 40.5 µg/mL | 28.1 µg/mL | 33 µM and 51.3 µg/mL | 28.3 µg/mL | 32.5 µM and 53.6 µg/mL | 28.9 µg/mL | 32.7 µM and 53.8 µg/mL | 27.8 µg/mL | 34.9 µM and 48.8 µg/mL

From PubChem BioAssay (NCI)
